What was measured:
[1] = system: hepatic mRNA of adult male SHMs; assay: SHM cDNA macroarray (30 genes): hepatic gene expression profiles of exposed fish; format: in vivo, sheepshead minnow (SHM)
[2] = system: estrogen receptors alpha, beta, and gamma, and Vtg 1 mRNA; assay: Real-time PCR of ER and Vtg 1 mRNA in LMB liver; format: in vivo, largemouth bass (LMB); settings: male LMB liver, 48 h after IP 4-NP 50 mg/kg + ICI 182,780 1.0 mg/kg
Excerpt: Experimental Design and Sample Collection: Adult male LMB were purchased from American Sports Fish Hatchery (Montgomery, Ala.) and maintained in fiberglass tanks as previously described (Larkin et al., Comp. Biochem. Physiol. B. Biochem. Mol. Biol. 133:543-557, 2002; Larkin et al., Marine Environ. Res. 54:395-399, 2002; and Larkin et al., Comparative Biochemistry and Physiology 133:543-557, 2002). Array technology as a tool to monitor exposure of fish to xenoestrogens. Marine Environ. Res., 2002; Bowman et al., Mol. Cell. Endocrinol. 196:67-77, 2002). Each fish was injected IP with either 50 mg/kg 4-NP (Fluka, St. Louis, Mo. # 74430), the combination of 50 mg/kg 4-NP and 1.0 mg/kg ICI 182,780 (Tocris Cookson), or vehicle, which consisted of ethanol and DMSO (Sigma, St. Louis, Mo. #5879). Each dose was dissolved in 1 ml of ethanol and then diluted to the appropriate concentration with DMSO. The fish were euthanized by submersion in a water bath containing 50-100 ppm […] 48 hours post injection and sacrificed by a sharp blow to the head followed by cervical transaction. The livers were excised and immediately flash frozen in liquid nitrogen. The frozen tissues were stored at −80° C. until RNA was isolated.
RNA Isolation: Isolation of total RNA from liver tissue was performed with the RNA Stat-60 reagent (Tel-test). Briefly, 30 mg-50 mg of tissue stored in RNA later was homogenized in 0.9 mls STAT 60, choloroform was added, and the mixture was centrifuged at 12,000 g for 15 minutes at 4° C. The extraction process was repeated and the pooled RNA was added to 500 μl isopropanol and allowed to precipitate at −20° C. for at least one hour. Following centrifugation at 12,000 g for 50 minutes, the pellet was washed with 70% ethanol, air dried and resuspended in an appropriate volume (50 μl-120 μl of RNA secure. The samples were treated with RNA secure (Ambion, Austin Tex. #7010) to inactivate contaminating RNases. All isolated RNA was treated with DNase solution (Ambion, Austin, Tex. #1906) following the manufacture's protocol. For all RNA samples, the quantity and quality of total RNA was assessed by spectrophotometric readings at 260 nm and by electrophoresis through a 1% formaldahyde agarose gel stained with ethidium bromide.
Real-Time PCR: Real time PCR was performed using reagents and a 5700 thermocycler purchased from Applied Biosystems (ABI, Foster City, Calif.). The nucleotide sequences of the primers for the ER subtypes and Vtg 1 are as follows: 5′, […] (SEQ ID NO:563) AND 5′[…] (SEQ ID NO:564). Probes and primers for the ER subtypes and Vtg 1 are described in Bowman et al., Ecotoxicology 8:399-416, 1999; and Bowman et al., Mol. Cell Endocrinol. 196:67-77, 2002. Each real time PCR reaction consisted of 0.01-0.2 μg of reverse transcribed total RNA from liver tissue, 1× universal Taqman master mix (ABI, Foster City, Calif.), and primers and probes in a 25 μl reaction. […] Statistical differences between the treatments were determined by one way analysis of variance with Dunnets post-hoc analysis.
Measurement of ER and Vtg 1 mRNA by real-time PCR: Real-time PCR is a sensitive assay that can be used to quantitate expression levels of genes. Using this technology, assays were designed to quantitate the expression of 4 genes, estrogen receptors alpha, beta, and gamma, and Vtg 1 in LMB following exposure to 4-NP and 4-NP/ICI 182,780. […]

hepatic RNA of LMB = assay: LMB gene array (132 genes): hepatic gene expression after IP injection; format: in vivo, largemouth bass (LMB); settings: two-fold cutoff vs control; for LMB83 vitellogenin-2 (Vtg 2) expression / LMB87 vitellogenin-1 (Vtg 1) expression / LMB97 choriogenin-3 expression / LMB108-1 choriogenin-2 expression / LMB47-2 (clone 47-2) expression: male LMB liver; for LMB83 vitellogenin-2 (Vtg 2) expression / LMB87 vitellogenin-1 (Vtg 1) expression / LMB97 choriogenin-3 expression / LMB108-1 choriogenin-2 expression: 48 h after single IP dose: E2 2.5 mg/kg, 4-NP 50 mg/kg or p,p′-DDE 100 mg/kg
[3] = Estrogen receptor alpha (clone ID not given)
[4] = clone SHM2-1: vitellogenin alpha (2)
[5] = clone SHM72-3: Coagulation Factor XI
[6] = clone SHM76-2: Alphal-microglobulin/bikunin precursor (AMBP) protein
[7] = male SHM liver, EE2 24, 109 or 832 ng/L, 4 days
[8] = female LMB liver, 48 h after single IP p,p′-DDE 100 mg/kg
[9] = female LMB liver, 48 h after single IP p,p′-DDE 100 mg/kg, listed as p, p′-DDE

C#C[C@]1(O)CC[C@H]2[C@@H]3CCc4cc(O)ccc4[C@H]3CC[C@@]21C [EE2, 17α-ethynyl estradiol]
Regulation [1, 3]: up-reg E2; EE2,
Regulation [1, 4]: up-reg E2; EE2,
Regulation ([1]; clone SHM11: Transferrin): dn-reg E2; EE2,
Regulation [1, 5]: up-reg E2; EE2,
Regulation [1, 6]: d-reg E2; EE2,
ER α expression, EE2 dose response [1, 7]: increase in a concentration dependent manner
Vtg α expression, EE2 dose response [1, 7]: increase in a concentration dependent manner
Vtg β expression, EE2 dose response [1, 7]: increase in a concentration dependent manner
alpha-1-microglobulin/bikunin precursor protein expression, EE2 dose response [1, 7]: decrease in a dose-dependent manner
beta actin expression, EE2 dose response [1, 7]: decrease in a dose-dependent manner
choriogenin 2 expression, EE2 dose response [1, 7]: increase in a concentration dependent manner
choriogenin 3 expression, EE2 dose response [1, 7]: increase in a concentration dependent manner
clone ND107-B expression, EE2 dose response [1, 7]: increase in a concentration dependent manner
transferrin expression, EE2 dose response [1, 7]: decrease in a dose-dependent manner

C[C@]12CC[C@@H]3c4ccc(O)cc4C[C@@H](CCCCCCCCC[S+]([O-])CCCC(F)(F)C(F)(F)F)[C@H]3[C@@H]1CC[C@@H]2O (stereo partly shown) [ICI 182,780]
repression of 4-NP induction of Vtg 1 mRNA by addition of ICI 182,780 [2]: not repressed

ClC(Cl)=C(c1ccc(Cl)cc1)c1ccc(Cl)cc1 [p,p′-DDE]
LMB5 vitellogenin-2A expression, female (hepatic RNA of LMB; [8]): NP; Dn-reg
LMB50-1 (clone 50-1) expression, female (hepatic RNA of LMB; [8]): Down reg NP;
LMB53-1 (clone 53-1) expression, female (hepatic RNA of LMB; [8]): Down-reg. E2;
LMB71-1 (clone 71-1) expression, female (hepatic RNA of LMB; [8]): down-reg
LMB83 vitellogenin-2 expression, female (hepatic RNA of LMB; [8]): dn-reg DDE(F)
LMB87 vitellogenin-1 expression, female (hepatic RNA of LMB; [8]): dn-reg DDE(F)
LMB94-1 transferrin expression, female (hepatic RNA of LMB; [8]): Down-reg.
LMB101-1 (clone 101-1) expression, female (hepatic RNA of LMB; [8]): Dn
LMB102-1 chemotaxin expression, female (hepatic RNA of LMB; [8]): down-reg
LMB107-1 (clone 107-1) expression, female (hepatic RNA of LMB; [8]): down-reg
LMB108-1 choriogenin-2 expression, female (hepatic RNA of LMB; [8]): DDE(M); Dn-
LMB112-1 cathepsin (Aspartic protease) expression, female (hepatic RNA of LMB; [8]): DHT; Dn-DDE (F)
LMB118-1 apolipoprotein precursor (clone 118-1) expression, female (hepatic RNA of LMB; [8]): down-reg
LMB120-1 hypothetical protein (clone 120-1) expression, female (hepatic RNA of LMB; [8]): donw-reg
LMB128-1 (clone 128-1) expression, female (hepatic RNA of LMB; [8]): down-reg
LMB141 vitellogenin-3 expression, female (hepatic RNA of LMB; [8]): dn DDE (F)
LMB150 androgen receptor expression, female (hepatic RNA of LMB; [8]): Dn-reg DDE(F)
four Vtg's expression, female (hepatic RNA of LMB; [8]): down-regulated
genes up-regulated in female fish (hepatic RNA of LMB; [8]): no genes were identified as up-regulated
LMB50-1 (clone 50-1) expression, female (hepatic RNA of LMB; [9]): down-regulated
LMB53-1 (clone 53-1) expression, female (hepatic RNA of LMB; [9]): down-regulated
LMB71-1 (clone 71-1) expression, female (hepatic RNA of LMB; [9]): down-regulated
LMB94-1 transferrin expression, female (hepatic RNA of LMB; [9]): down-regulated
LMB101-1 (clone 101-1) expression, female (hepatic RNA of LMB; [9]): down-regulated
LMB102-1 chemotaxin expression, female (hepatic RNA of LMB; [9]): down-regulated
LMB107-1 (clone 107-1) expression, female (hepatic RNA of LMB; [9]): down-regulated
LMB108-1 choriogenin-2 expression, female (hepatic RNA of LMB; [9]): down-regulated
LMB112-1 cathepsin (Aspartic protease) expression, female (hepatic RNA of LMB; [9]): down-regulated
LMB118-1 apolipoprotein precursor (clone 118-1) expression, female (hepatic RNA of LMB; [9]): down-regulated
LMB120-1 hypothetical protein (clone 120-1) expression, female (hepatic RNA of LMB; [9]): down-regulated
LMB128-1 (clone 128-1) expression, female (hepatic RNA of LMB; [9]): down-regulated
LMB150 androgen receptor expression, female (hepatic RNA of LMB; [9]): down-regulated
LMB83 vitellogenin-2 (Vtg 2) expression (hepatic RNA of LMB): up-reg E2;
LMB87 vitellogenin-1 (Vtg 1) expression (hepatic RNA of LMB): up-reg E2;
LMB97 choriogenin-3 expression (hepatic RNA of LMB): Up-reg E2;
LMB108-1 choriogenin-2 expression (hepatic RNA of LMB): Up-reg E2; NP;
LMB83 vitellogenin-2 (Vtg 2) expression (hepatic RNA of LMB; listed as p, p′-DDE): up-regulated
LMB87 vitellogenin-1 (Vtg 1) expression (hepatic RNA of LMB; listed as p, p′-DDE): up-regulated
LMB97 choriogenin-3 expression (hepatic RNA of LMB; listed as p, p′-DDE): up-regulated
LMB108-1 choriogenin-2 expression (hepatic RNA of LMB; listed as p, p′-DDE): up-regulated
LMB47-2 (clone 47-2) expression (hepatic RNA of LMB; 48 h after single IP p,p′-DDE 100 mg/kg): Down-reg
LMB47-2 (clone 47-2) expression (hepatic RNA of LMB; 48 h after single IP p,p′-DDE 100 mg/kg, listed as p, p′-DDE): down-regulated

CC/C(=C(/CC)c1ccc(O)cc1)c1ccc(O)cc1 [DES, diethylstilbestrol]
Regulation [1, 3]: up-reg E2; EE2,
Regulation [1, 4]: up-reg E2; EE2,
Regulation ([1]; clone SHM11: Transferrin): dn-reg E2; EE2,
Regulation [1, 5]: up-reg E2; EE2,
Regulation [1, 6]: d-reg E2; EE2,

COc1ccc(C(c2ccc(OC)cc2)C(Cl)(Cl)Cl)cc1 [MXC, methoxychlor]
Regulation [1, 3]: up-reg E2; EE2,
Regulation [1, 4]: up-reg E2; EE2,
Regulation ([1]; clone SHM11: Transferrin): dn-reg E2; EE2,
Regulation [1, 5]: up-reg E2; EE2,
Regulation [1, 6]: d-reg E2; EE2,
